{"source": "patent US7220827B2", "about": "“Compound binding to leukocytes and medicinal composition containing the compound in labeled state as the active ingredient” (Nihon Medi-Physics Co., Ltd., priority 2002, dated 2007)", "test_system": "human leukocytes (granulocytes; lymphocytes and monocytes)", "test": "Distribution of Tc-99m labeled peptides in human blood (Percoll density gradient)", "format": "cell-based", "settings": "incubation 30 minutes", "excerpt": "In order to confirm clinical effectiveness of the peptide of the present invention in human, binding affinities to leukocytes of two types of peptides of the present invention were examined by using human blood. The peptide 3 and the peptide 6 labeled with Tc-99m in Example 2 were separated into unlabeled peptides and labeled peptides, and purified by reversed phase HPLC under the same conditions as of HPLC in Example 2. […]\nThe conventionally known peptides, Tc-99m-peptide 11 and Tc-99m-peptide 12, were prepared. Each of the peptide 11 and the peptide 12 was dissolved in dimethylformamide to prepare a solution having the concentration of 0.1 mg/500 μl. A solution of SnCl2/10 mM hydrochloric acid (5 mg/10 ml) 50 μl was added to a tartaric acid/PBS solution (5 mg/200 μl), and the peptide solution was added thereto. Then ^99mTcO4^− solution (2738 MBq/ml) 0.25 μl was infused immediately thereafter and shaken for several seconds to perform labeling reaction at 120° C. for 10 minutes. Final concentration was about 855.6 MBq/125 mg/ml. Purification and measurement of radiochemical purity were performed by using preparative HPLC. Analysis was performed under the same conditions as in Example 2, i.e. gradient: 20%→50% (0.1% TFA acetonitrile/0.1% TFA water); 0→20 minutes. Radioactivity concentration after the purification was 287–311 MBq/ml.\nSubsequently, a Percoll density gradient solution was prepared based on the method described in Example 3.\nBlood, 20–30 ml, was collected from adult volunteers, 40 years old or less. The Tc-99m labeled peptides, 30 μl (111 MBq/ml, 1.8×10^−11 mol/ml as Tc-peptide) each, were added thereto and incubated for 30 minutes. The blood sample 2–3 ml was layered over carefully to the prepared Percoll density gradient solution. After centrifugation at 2000 rpm (800×g) for 15 minutes, the tube was frozen and each fraction was cut off by using a cutter, then the radioactivity of each fraction was measured using Auto-Well Gamma Counter to determine the radioactivity distribution of Tc-99m-labeled peptides in the blood components."}
{"substance": "Tc-99m-glucoheptonic acid", "values": [{"measurement": "radioactivity distributed in the plasma fraction", "value": 95.39, "unit": "%"}, {"measurement": "radioactivity distribution in the granulocyte fraction", "value": "1.11 % of the radioactivity in the whole blood"}, {"measurement": "radioactivity distribution in the lymphocyte and monocyte fraction", "value": "2.52 % of the radioactivity in the whole blood"}]}
